This note sets out measurements from patent US6011019A, “Vasoactive effects and free radical generation by β-amyloid peptides” (University of South Florida, priority 1996, dated 2000).

Assay [1] has as its system blood vessel (rat aorta). The experiment in a line: Vascular response of blood vessel rings in tissue bath (basal tension, β-amyloid induced vasoactivity). How it is done: Freshly excised rat and porcine blood vessels were placed in Kreb's bicarbonate buffer equilibrated with 5% CO2 in O2. The buffer composition consisted of 118.2 mM NaCl, 4.7 mM KCl, 1.2 mM MgSO4, 2.5 mM CaCl2, 1.2 mM NaH2 PO4, 23 mM NaHCO3 and 11.2 mM glucose. After cleaning the vessels free of fat and other adhering tissues, the vessels were cut into ring segments of approximately 3 mm in length. Care was taken not to damage the intimal surface.
The endothelium was removed from some preparations by rubbing the inside of the lumen with a metal spatula for six to ten seconds and subsequent rinsing with buffer. The removal of endothelium was confirmed by testing for relaxation to acetylcholine [Furchgott and Zawadzki, 1980].
(§1) The blood vessel preparations were mounted on stainless steel hooks attached to a force-displacement transducer and equilibrated under the optimum tension of 1.3 g for a period of sixty minutes in a tissue bath (10 ml) containing oxygenated (5% CO2 in O2) Kreb's buffer at 37° C. The buffer was changed every fifteen minutes. After equilibration for sixty minutes the viability of the blood vessel with intact endothelium was established by constricting the blood vessel using phenylephrine ([…]). This dose of phenylephrine elicited 80% of the maximum response. […] The vessel preparations were washed for fifteen minutes before various manipulations as described below.
Referring to FIG. 10, the arrow indicates the addition of 10^-6 M β-amyloid. The control tissue received no β-amyloid. SOD (150 units/ml) was added thirty seconds prior to the addition of β-amyloid. The maximum contraction induced by β-amyloid was 1.14±0.13 (g) and in presence of SOD the contraction was reduced to 0.04±0.02 (g). Values represent the mean±SEM of five separate experiments.

For assay [2], the system named is blood vessel (rat aorta). The assay can be described thus: Acetylcholine induced relaxation of preconstricted rat aorta after β-amyloid. As to conditions: for acetylcholine induced relaxation after β-amyloid pretreatment: 10^-6 M β-amyloid fifteen minutes, preconstricted with 10^-7 M phenylephrine. How it is done:
as §1
(1=10^-9 M, 2=10^-8 M, 3=5×10^-8 M, 4=10^-7 M, 5=5×10^-7 M, 6=10^-6 M, 7=10^-5 M, 8=5×10^-5 M, the curve denoted by (C) is the control curve and +Aβ indicates the curve for β-amyloid treated aorta.)
FIG. 11 illustrates the relaxation by acetylcholine under control conditions and following fifteen minute incubation with 10^-6 M β-amyloid protein. The acetylcholine relaxation curve is shifted to the right but maintains its sigmoidal form indicating attenuation of acetylcholine induced relaxation. Values represent the mean±SEM of 5 or more experiments. […] At higher doses of acetylcholine greater percentage changes in relaxation occur preserving the sigmoidal response.

The test system of another assay is aortic rings. The experiment in a line: β-amyloid augmentation of phenylephrine (PE) induced contraction of aortic rings. The settings on record: for PE induced contraction, +β-Amyloid P1 (±SEM): after 10^-6 M β-amyloid, maximum contraction without β-amyloid = 100%; for PE induced contraction, +β-Amyloid P2 (±SEM): repeated contraction after washing, no further β-amyloid. Also on record: species or system rat. How it is done: as §1
The procedure was then repeated following incubation of the tissue with 10^-6 M β-amyloid for fifteen minutes (P1). The tissue was then rinsed and contractions repeated twice following fifteen minute incubation (P2 & P3) without further addition of β-amyloid. Arrows are shown for points of addition for P3.
Following a fifteen minute incubation, the preparations were contracted with 10^-7 M phenylephrine (PE) as described earlier. Control contractions with PE alone were carried out in presence of the various test compounds. Values represent the mean±SEM of four or more experiments. The heat-inactivated SOD was prepared by placing it in boiling water for thirty minutes followed by cooling prior to use. The hydrogen peroxide-inactivated SOD was prepared by exposing SOD to 10 mM H2 O2 for thirty minutes at pH 8.5 and subsequent separation using Microcon filtration system. The amyloid induced PE contraction was blocked by active SOD. Neither albumin or inactivated SOD had any effect on the amyloid activity.
The effect of preincubation of blood vessel with 10^-6 M β-amyloidon contraction induced by phenylephrine (2, 4, 8, & 16×10^-8 M is shown in Table 1). The maximum contraction in the absence of β-amyloid is taken as 100% and the values obtained following exposure to β-amyloid are expressed as percent of control value. After washing out phenylephrine and acetylcholine of the control contraction, β-amyloid augmented the phenylephrine induced contractions (P1). This effect was blocked by SOD. Washing out the phenylephrine and acetylcholine of the post peptide contraction and repeating the contractions caused further enhancement (P2). Values represent the mean±SEM of nine or more experiments.
The tissue was then incubated for fifteen minutes with β-amyloid (5×10^-7 M) with or without the drug, followed by contractions with PE. The concentrations compounds used were: L-NMMA, an inhibitor of NO synthase (10^-4 M); indomethacin, an inhibitor of the cyclooxygenase pathway (10^-5 M); SQ 29548, a thromboxane A2 receptor antagonist (10^-5 M); and catalase (1000 units/ml). Values are represented as percentage of the maximal contraction obtained with β-amyloid and PE alone and standardized to remove the intrinsic effects (if any) of each drug on PE contraction alone. The results represent the mean±SEM of five or more experiments.

The test system of assay [3] is endothelial cells in aortic rings. The experiment in a line: Electron microscopy of endothelial cell layer in aortic rings. Further details: species or system rat. How it is done:
As shown in FIGS. 14A-F, […], or in presence of β-amyloid (10^-6 M), or SOD (150 units/ml) and β-amyloid.The tissue samples were kept in glutaraldehyde solution at 4° C. until processed and then rinsed with cacodylate buffer. The tissues were postfixed with 1% buffered osmium tetroxide, dehydrated with graded ethanol solutions, and embedded in a mixture of eponaraldite. Ultrathin sections were stained with uranyl acetate and lead citrate and viewed on model 7000 Hitachi transmission electron microscope. The inset bar indicates one micron. The experiment was repeated three or more times with blood vessels from different animals.

Assay [4] has as its system endothelial cell layer in rat coronary artery. The experiment in a line: Electron microscopy of endothelial cell layer in rat coronary artery. The settings on record: β-amyloid thirty minutes at 10^-6 M. How it is done: The physiological effects of β-amyloid treatment on the coronary artery with and without pretreatment with SOD is shown in FIG. 7A-C. FIG. 7A-C are electron micrographs showing the endothelial cell layer in rat coronary artery. […] The tissue samples were kept in glutaraldehyde solution at 4° C. until processed and then rinsed with cacodylate buffer. The tissues were post-fixed with 1% buffered osmium tetroxide, dehydrated with grated ethanol solutions, and embedded in a mixture of eponaraldite. Ultra thin sections were stained with uranyl acetate and lead citrate and viewed on a model 7,000 Hitachi transmission electron microscope. The inset bar indicates two microns. The experiment was repeated three or more times with blood vessels from different animals. FIG. 7A is a control coronary artery and depicts normal endothelial cells closely adhering to the intimal elastic lamina lining of the lumen. […] FIG. 7C depicts a rat coronary artery pretreated with SOD (150 units/ml, for thirty seconds prior to the addition of β-amyloid).

Take β-amyloid: the “maximum contraction induced by β-amyloid” value with blood vessel (rat aorta) [1] (10^-6 M β-amyloid, mean±SEM of five experiments) was 1.14 ± 0.13 g. Further, the “duration of contraction/relaxation activity” value with blood vessel (rat aorta) [1] (after β-amyloid addition) is given as “fifteen to twenty minutes”. For the same substance, in the assay on blood vessel (rat aorta) [1] (after β-amyloid addition), the “initial detectable change: minor relaxation” value is under 0.1 g. Further, in the assay on blood vessel (rat aorta) [1] (after β-amyloid addition), the onset of vasoactivity result is reported as “within thirty seconds”. The “constriction of the blood vessel” value in the assay with blood vessel (rat aorta) [1] (increasing concentration of β-amyloid, basal tension, intact endothelium) is “constricted the blood vessel in a concentration-dependent manner”. The “endothelium dependence of the constricting effect” value in the assay with blood vessel (rat aorta) [1] (vessels with and without endothelium) is reported as “only occurred in the presence of endothelium”. In addition, the entries for the “acetylcholine induced relaxation after β-amyloid pretreatment” value with blood vessel (rat aorta) [2] and in the assay with blood vessel (rat aorta) [2] (listed as β-amyloid protein) were “significantly reduced relaxation” and “significantly lowered”, respectively. For the same substance, the “restoration of acetylcholine induced relaxation by washing after β-amyloid” value with blood vessel (rat aorta) [2] (tissue washed following β-amyloid exposure) is reported as “did not restore the acetylcholine-induced relaxation to control levels”. The “PE induced contraction, +β-Amyloid P1 (±SEM)” value is listed as 13.3(5.9) percent of control value in the assay with aortic rings (PE 2×10^-8 M), 75(6.0) percent of control value in the assay on aortic rings (PE 4×10^-8 M), 105(15.0) percent of control value with aortic rings (PE 8×10^-8 M) and 128(11.7) percent of control value with aortic rings (PE 16×10^-8 M). In addition, the “PE induced contraction, +β-Amyloid P2 (±SEM)” value is 20(5.0) percent of control value in the assay on aortic rings (PE 2×10^-8 M), 99(15.0) percent of control value with aortic rings (PE 4×10^-8 M), 133(20.0) percent of control value in the assay on aortic rings (PE 8×10^-8 M) and 141(17.6) percent of control value in the assay on aortic rings (PE 16×10^-8 M). For the same substance, the “PE contraction after washing the β-amyloid treated tissue” value in the assay on aortic rings (subsequent contraction with PE) was “showed further increase”. Also, in assay [3] (incubation periods of fifteen minutes), the “β-amyloid concentration required to induce the morphological changes” value is > 5×10^-7 M. In assay [3] (β-amyloid 10^-6 M, 37° C., thirty minutes), the “endothelial cell morphology after incubation” value is on record as “induced significant damage to the endothelial cells”. For the same substance, the “endothelial layer morphology in rat coronary artery” value in assay [4] is “Derangement of the endothelial layer, condensed nucleus, separation from the intimal elastic lamina, and areas of denuded internal elastic lamina”.
